Assay results: article PMC6021035, “Insights into biological activity of ureidoamides with primaquine and amino acid moieties” (Journal of Enzyme Inhibition and Medicinal Chemistry, 2018)

What was measured:
[1] = test system: Aspergillus niger ATCC 16404; experiment: MIC determination (broth micro-dilution); format: cell-based; settings: ATCC16404
Method: (§1) Before analysis, compounds 5a–f were dissolved in 96% ethanol in a concentration of 2 mg/ml as stock solutions. Inoculums were prepared with fresh cultures of microbial strains, cultured on tryptic-soy agar or Sabouraud 2% (m/v) dextrose agar for 18 h (48–72 h for fungi) at 30 °C with physiological saline containing approximately […]. Inoculum density (0.5 McFarland units) was adjusted with a bio Mériex (France) densitometer. Minimum inhibitory concentration (MIC) was determined by the twofold micro-dilution method in Mu¨ller–Hinton broth for bacterial strains and RPMI 1640 + 2% m/v dextrose for fungi according to the EUCAST recommendations in a sterile 96-well flat-bottom plastic tissue culture plate. MIC was determined using a linear regression curve after incubation of compounds and reading the optical density at 570 nm using an iEMS microplate reader. […] All tests were performed in triplicate and expressed as the mean.

[2] = test system: Bacillus cereus ATCC 11778; experiment: MIC determination (broth micro-dilution); format: cell-based; settings: ATCC11778
Method: as §1

[3] = test system: Burkholderia caepacia ATCC 25416; experiment: MIC determination (broth micro-dilution); format: cell-based; settings: ATCC25416
Method: as §1

[4] = test system: Candida albicans ATCC 10231; experiment: MIC determination (broth micro-dilution); format: cell-based; settings: ATCC10231
Method: as §1

[5] = test system: Candida albicans ATCC 90028; experiment: MIC determination (broth micro-dilution); format: cell-based; settings: ATCC90028
Method: as §1

Candida kefyr ATCC 2512 = experiment: MIC determination (broth micro-dilution); format: cell-based; settings: Kluyveromyces marxianus, ATCC2512
Method: as §1

[6] = test system: Candida krusei ATCC 14243; experiment: MIC determination (broth micro-dilution); format: cell-based; settings: Pichia kudriavzevii, ATCC14243
Method: as §1

[7] = test system: Candida parapsylosis ATCC 22019; experiment: MIC determination (broth micro-dilution); format: cell-based; settings: ATCC22019
Method: as §1

[8] = test system: Enterococcus faecalis ATCC 29212; experiment: MIC determination (broth micro-dilution); format: cell-based; settings: ATCC29212
Method: as §1

[9] = test system: Escherichia coli ATCC 10536; experiment: MIC determination (broth micro-dilution); format: cell-based; settings: ATCC10536
Method: as §1

[10] = test system: Escherichia coli ATCC 8739; experiment: MIC determination (broth micro-dilution); format: cell-based; settings: ATCC8739
Method: as §1

[11] = test system: Issatchenkia orientalis Kudrjanzev ATCC 6258; experiment: MIC determination (broth micro-dilution); format: cell-based; settings: Pichia kudriavzevii, ATCC6258
Method: as §1

[12] = test system: Kocuria rhizophila ATCC 9341; experiment: MIC determination (broth micro-dilution); format: cell-based; settings: ATCC9341
Method: as §1

[13] = test system: Pseudomonas aeruginosa ATCC 27853; experiment: MIC determination (broth micro-dilution); format: cell-based; settings: ATCC27853
Method: as §1

[14] = test system: Pseudomonas aeruginosa ATCC 9027; experiment: MIC determination (broth micro-dilution); format: cell-based; settings: ATCC9027
Method: as §1

[15] = test system: Staphylococcus aureus ATCC 25923; experiment: MIC determination (broth micro-dilution); format: cell-based; settings: ATCC25923
Method: as §1

[16] = test system: Staphylococcus aureus ATCC 6538; experiment: MIC determination (broth micro-dilution); format: cell-based; settings: ATCC6538
Method: as §1

[17] = target: T1, soybean lipoxygenase (LOX) (Glycine max, UniProt P08170); experiment: In vitro soybean lipoxygenase (LOX) inhibition; format: biochemical; settings: sodium linoleate 0.1 mM, read-out: LOX inhibition (IC50 μM) ± SD
T1 construct: purchased Sigma-Aldrich
T1 sequence (P08170 1-839): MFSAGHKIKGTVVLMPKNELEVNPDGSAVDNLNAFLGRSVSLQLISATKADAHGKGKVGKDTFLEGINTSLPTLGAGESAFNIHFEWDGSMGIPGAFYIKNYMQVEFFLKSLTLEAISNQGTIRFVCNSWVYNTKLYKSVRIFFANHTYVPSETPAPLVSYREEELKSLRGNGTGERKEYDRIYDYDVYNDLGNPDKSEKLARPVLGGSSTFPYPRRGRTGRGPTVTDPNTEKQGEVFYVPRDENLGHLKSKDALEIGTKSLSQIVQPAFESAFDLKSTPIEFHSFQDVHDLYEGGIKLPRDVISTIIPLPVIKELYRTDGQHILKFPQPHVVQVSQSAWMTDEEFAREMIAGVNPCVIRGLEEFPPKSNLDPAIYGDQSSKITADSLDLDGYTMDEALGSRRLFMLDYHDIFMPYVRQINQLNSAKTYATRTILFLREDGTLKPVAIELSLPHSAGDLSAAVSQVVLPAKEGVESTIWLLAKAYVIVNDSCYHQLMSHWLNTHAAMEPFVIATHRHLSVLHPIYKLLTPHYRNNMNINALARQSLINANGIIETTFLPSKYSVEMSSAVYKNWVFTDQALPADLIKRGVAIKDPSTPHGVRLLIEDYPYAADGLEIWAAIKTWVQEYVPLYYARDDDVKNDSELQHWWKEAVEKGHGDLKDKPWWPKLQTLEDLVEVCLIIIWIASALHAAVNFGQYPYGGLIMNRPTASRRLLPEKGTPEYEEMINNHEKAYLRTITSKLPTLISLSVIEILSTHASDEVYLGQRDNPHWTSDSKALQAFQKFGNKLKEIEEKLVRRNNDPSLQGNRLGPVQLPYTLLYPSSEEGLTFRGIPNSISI
Method: In vitro LOX inhibition assay was accomplished as described previously. Test compounds (stock solutions 10 mM in DMSO) were incubated at room temperature with sodium linoleate (0.1 mM) and 0.2 ml of LOX solution (0.1 mg in 10 ml saline). Conversion of sodium linoleate to 13-hydroperoxylinoleic acid was measured at 234 nm and compared to the reference inhibitor. Several concentrations were used for IC50 determination.

[18] = In vitro haemolytic activity; format: cell-based; settings: male, 4% (v/v) fresh human erythrocyte suspension, 4% human erythrocytes, read-out: Haemolysis (%)
Method: Then, 4% (v/v) of fresh human erythrocyte solution (hErc) was prepared using a PBS pH 7.0 solution. A series of diluted compounds from 200 to 50 µg/ml were prepared in a total volume of 1 ml with hErc solution. […] Absorbance of the supernatant (200 µl) was recorded at 540 nm using an iEMS microplate reader. The 0.1% (v/v) solution of Triton X100 served as a positive control (as total lysis of hErc), and intact hErc served as a negative control. […] All tests were performed in triplicate and the results were expressed as haemolysis percentage (mean ± SD). Percentage of haemolysis was calculated using the following equation: haemolysis %=Asample-Anc/Apc-Anc×100 where Asample was absorbance of the tested compound, Anc was absorbance of the negative control (intact hErc) and Apc was absorbance of the positive control treated with 0.1% TritonX100. In statistical calculations, p values below 0.05 were considered significant throughout the test. For comparison of mean values, one-way ANOVA with Dunnet’s post-test was used.

MIC [1]: > 100 µg/mL
MIC [2]: > 100 µg/mL
MIC [3]: > 100 µg/mL
MIC [4]: > 100 µg/mL
MIC [5]: > 100 µg/mL
MIC (Candida kefyr ATCC 2512): > 100 µg/mL
MIC [6]: > 100 µg/mL
MIC [7]: > 100 µg/mL
MIC [8]: > 100 µg/mL
MIC [9]: > 100 µg/mL
MIC [10]: > 100 µg/mL
MIC [11]: > 100 µg/mL
MIC [12]: > 100 µg/mL
MIC [13]: > 100 µg/mL
MIC [14]: > 100 µg/mL
MIC [15]: > 100 µg/mL
MIC [16]: > 100 µg/mL
IC50 [17]: 67.5 ± 1.1 µM
SMILES: COc1ccc(C(=NNC(=O)C(NC(=O)NCCCC(C)Nc2cc(OC)cc3cccnc23)c2ccc(Cl)cc2)c2ccccc2)cc1 (stereo not drawn) [Compound 5f, 3-[(4-chlorophenyl)({N'-[(4-methoxyphenyl)(phenyl)methylidene]hydrazinecarbonyl})methyl]-1-{4-[(6-methoxyquinolin-8-yl)amino]pentyl}urea]
hemolysis at 1 h, 50 µg/ml ([18]; pH 7, 50 μg/ml): 3.32 ± 0.05%
hemolysis at 1 h, 100 µg/ml ([18]; pH 7, 100 μg/ml): 3.66 ± 0.05%
hemolysis at 1 h, 200 µg/ml ([18]; pH 7, 200 μg/ml): 4.03 ± 0.09%
